Source: ChEMBL document CHEMBL1138420, “Discovery of adamantane ethers as inhibitors of 11beta-HSD-1: Synthesis and biological evaluation” (Bioorg Med Chem Lett, 2007)

Key:
[1] = target: T1, 11-beta-hydroxysteroid dehydrogenase 1 (Homo sapiens, UniProt P28845); test: Inhibition of human 11beta-HSD1 by SPA
[2] = target: T2, 11-beta-hydroxysteroid dehydrogenase type 2 (Homo sapiens, UniProt P80365); test: Inhibition of human 11beta-HSD2 by SPA
T2 sequence (P80365 whole entry): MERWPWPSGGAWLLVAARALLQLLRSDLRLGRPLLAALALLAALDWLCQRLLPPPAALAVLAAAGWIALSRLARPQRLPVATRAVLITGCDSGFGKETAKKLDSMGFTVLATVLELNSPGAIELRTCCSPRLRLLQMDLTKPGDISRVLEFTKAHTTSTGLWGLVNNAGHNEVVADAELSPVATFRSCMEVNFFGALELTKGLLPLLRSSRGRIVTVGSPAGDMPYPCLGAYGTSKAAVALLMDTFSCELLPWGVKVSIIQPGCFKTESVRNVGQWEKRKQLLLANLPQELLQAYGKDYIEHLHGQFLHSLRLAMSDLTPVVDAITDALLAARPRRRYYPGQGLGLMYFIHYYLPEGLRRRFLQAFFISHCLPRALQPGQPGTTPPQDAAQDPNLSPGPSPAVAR

[3] = target: 11-beta-hydroxysteroid dehydrogenase 1 (Mus musculus, UniProt P50172); test: Inhibition of mouse 11beta-HSD1 by SPA
11-beta-hydroxysteroid dehydrogenase 1 (Mus musculus, UniProt P50172), sequence (P50172 whole entry): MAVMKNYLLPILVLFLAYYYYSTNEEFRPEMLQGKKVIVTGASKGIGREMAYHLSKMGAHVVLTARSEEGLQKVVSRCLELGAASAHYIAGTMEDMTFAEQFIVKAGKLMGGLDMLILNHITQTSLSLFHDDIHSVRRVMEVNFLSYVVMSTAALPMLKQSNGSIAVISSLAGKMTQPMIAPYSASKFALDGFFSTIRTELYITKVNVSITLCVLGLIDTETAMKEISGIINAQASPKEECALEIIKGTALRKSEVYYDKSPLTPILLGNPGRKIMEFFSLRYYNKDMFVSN

[4] = target: T3, 11-beta-hydroxysteroid dehydrogenase type 2 (Mus musculus, UniProt P51661); test: Inhibition of mouse 11beta-HSD2 by SPA
T3 sequence (P51661 whole entry): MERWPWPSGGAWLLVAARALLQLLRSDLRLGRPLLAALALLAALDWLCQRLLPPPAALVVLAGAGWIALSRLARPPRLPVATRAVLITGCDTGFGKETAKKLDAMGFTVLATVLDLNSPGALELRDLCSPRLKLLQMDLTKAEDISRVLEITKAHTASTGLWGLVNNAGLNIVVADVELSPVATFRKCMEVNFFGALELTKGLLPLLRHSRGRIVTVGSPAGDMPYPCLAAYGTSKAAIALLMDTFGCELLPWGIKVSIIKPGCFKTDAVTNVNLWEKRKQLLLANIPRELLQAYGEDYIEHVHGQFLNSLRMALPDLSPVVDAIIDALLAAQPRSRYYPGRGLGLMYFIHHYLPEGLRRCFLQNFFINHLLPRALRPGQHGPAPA

[5] = target: T1, 11-beta-hydroxysteroid dehydrogenase 1; test: Inhibition of human 11beta-HSD1 expressed in HEK293 cells by FPIA; format: cell-based
[6] = Metabolic stability in mouse liver microsome after 30 mins; format: ADME; details: liver microsomes, read-out: Stability
[7] = system: Mus musculus; test: Ex vivo inhibition of 11beta-HSD1 in ob/ob mouse liver at 30 mg/kg, po after 1 hr; format: functional
[8] = system: Mus musculus; test: Ex vivo inhibition of 11beta-HSD1 in ob/ob mouse liver at 30 mg/kg, po after 7 hrs; format: functional
[9] = system: Mus musculus; test: Ex vivo inhibition of 11beta-HSD1 in ob/ob mouse liver at 30 mg/kg, po after 16 hrs; format: functional
[10] = system: Mus musculus; test: Ex vivo inhibition of 11beta-HSD1 in ob/ob mouse fat at 30 mg/kg, po after 1 hr; format: functional
[11] = system: Mus musculus; test: Ex vivo inhibition of 11beta-HSD1 in ob/ob mouse fat at 30 mg/kg, po after 7 hrs; format: functional
[12] = system: Mus musculus; test: Ex vivo inhibition of 11beta-HSD1 in ob/ob mouse fat at 30 mg/kg, po after 16 hrs; format: functional
[13] = system: Mus musculus; test: Ex vivo inhibition of 11beta-HSD1 in ob/ob mouse brain at 30 mg/kg, po after 1 hr; format: functional
[14] = system: Mus musculus; test: Ex vivo inhibition of 11beta-HSD1 in ob/ob mouse brain at 30 mg/kg, po after 7 hrs; format: functional
[15] = system: Mus musculus; test: Ex vivo inhibition of 11beta-HSD1 in ob/ob mouse brain at 30 mg/kg, po after 16 hrs; format: functional
[16] = Plasma clearance in ob/ob mouse at 5 mg/kg, iv or 10 mg/kg, po; format: ADME, organism-based
[17] = Half life in ob/ob mouse at 5 mg/kg, iv or 10 mg/kg, po; format: ADME, organism-based; details: in vivo
[18] = Bioavailability in ob/ob mouse at 10 mg/kg; format: ADME, organism-based; details: in vivo, oral

T1 sequence (P28845 whole entry): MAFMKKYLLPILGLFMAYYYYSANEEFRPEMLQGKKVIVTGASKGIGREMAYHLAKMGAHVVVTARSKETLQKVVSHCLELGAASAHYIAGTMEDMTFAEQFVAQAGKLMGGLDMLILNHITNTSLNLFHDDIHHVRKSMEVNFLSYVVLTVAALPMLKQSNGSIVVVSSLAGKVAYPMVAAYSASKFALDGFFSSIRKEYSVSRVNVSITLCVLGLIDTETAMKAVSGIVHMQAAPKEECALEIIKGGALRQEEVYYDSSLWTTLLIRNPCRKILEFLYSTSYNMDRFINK

SMILES | IC50 [1] | IC50 [2] | IC50 [3] | IC50 [4] | IC50 [5] | remaining at 0.5 h [6] | further results
COc1ccc(OC(C)(C)C(=O)N[C@H]2C3CC4CC2C[C@](C(N)=O)(C4)C3)cc1 | – | – | 0.004 µM | – | – | 57% | –
CC(C)(Oc1ccc(Cl)cc1)C(=O)N[C@H]1C2CC3CC1C[C@](C(=O)NCc1ccc(C(=O)NS(C)(=O)=O)cc1)(C3)C2 | – | – | – | – | – | 51% | –
CC(C)(Oc1ccc(Cl)cc1)C(=O)N[C@H]1C2CC3CC1C[C@](C(=O)NCc1ccc(-c4nnn[nH]4)cc1)(C3)C2 | – | – | 0.018 µM | – | – | 51% | –
CNC(=O)NC(=O)[C@]12CC3CC(C1)[C@@H](NC(=O)C(C)(C)Oc1ccc(Cl)cc1)C(C3)C2 | – | – | 0.008 µM | – | – | – | –
CC(C)(Oc1ccccc1Cl)C(=O)N[C@H]1C2CC3CC1C[C@](C(=O)NS(=O)(=O)c1ccccc1)(C3)C2 | 0.5 µM | – | 1 µM | – | – | – | –
CC(C)(Oc1cccc(Cl)c1)C(=O)N[C@H]1C2CC3CC1C[C@](C(=O)O)(C3)C2 | 0.015 µM | 3.5 µM | 0.051 µM | 0.54 µM | 0.19 µM | 100% | –
CC(C)(Oc1ccccc1)C(=O)N[C@H]1C2CC3CC1C[C@](C(N)=O)(C3)C2 | – | – | 0.004 µM | – | – | 78% | –
CC(C)(Oc1ccc(Cl)cc1)C(=O)N[C@H]1C2CC3CC1C[C@](C(=O)NCc1ccc(C(=O)O)cc1)(C3)C2 | – | – | 0.012 µM | – | – | 94% | inhibition in vivo at 30 mg/kg [7]: 99%; inhibition in vivo at 30 mg/kg [8]: 93%; inhibition in vivo at 30 mg/kg [9]: 77%; inhibition in vivo at 30 mg/kg [10]: 37%; inhibition in vivo at 30 mg/kg [11]: 38%; inhibition in vivo at 30 mg/kg [12]: 36%
CC(C)(Oc1ccc(Cl)cc1)C(=O)N[C@H]1C2CC3CC1C[C@](C(=O)O)(C3)C2 | – | – | 0.07 µM | – | – | 89% | –

Continued, in another order:

IC50 [1] | IC50 [2] | IC50 [3] | IC50 [4] | IC50 [5] | remaining at 0.5 h [6] | SMILES | further results
0.025 µM | 5.3 µM | 0.014 µM | 19 µM | 0.091 µM | 16% | CC(C)(Oc1ccc(Cl)cc1)C(=O)N[C@H]1C2CC3CC1C[C@](C(=O)NCc1ccncc1)(C3)C2 | –
– | – | 0.119 µM | – | – | 98% | CC(C)(Oc1ccccc1)C(=O)N[C@H]1C2CC3CC1C[C@](C(=O)O)(C3)C2 | –
– | – | 0.006 µM | – | – | 19% | CC(C)(Oc1ccc(Cl)cc1)C(=O)N[C@H]1C2CC3CC1C[C@](CO)(C3)C2 | –
– | – | 0.004 µM | – | – | 78% | CC(C)(Oc1ccc(Cl)cc1)C(=O)N[C@H]1C2CC3CC1C[C@](C(=O)NCC(N)=O)(C3)C2 | –
0.051 µM | > 30 µM | 0.024 µM | 16 µM | 0.3 µM | 35% | CC(C)(Oc1ccc(Cl)cc1)C(=O)N[C@H]1C2CC3CC1C[C@](C(=O)NCc1ccc(S(N)(=O)=O)cc1)(C3)C2 | inhibition in vivo at 30 mg/kg [7]: 45%; inhibition in vivo at 30 mg/kg [8]: 55%; inhibition in vivo at 30 mg/kg [9]: 58%; inhibition in vivo at 30 mg/kg [10]: 15%; inhibition in vivo at 30 mg/kg [11]: 18%; inhibition in vivo at 30 mg/kg [12]: 5%; inhibition in vivo at 30 mg/kg [13]: 0%; inhibition in vivo at 30 mg/kg [14]: 0%; inhibition in vivo at 30 mg/kg [15]: 18%; clearance [16]: 0.9 L/h/kg; half-life [17]: 3.8 h; bioavailability [18]: 44%
– | – | 0.003 µM | – | – | 43% | CC(C)(Oc1ccc(Cl)cc1)C(=O)N[C@H]1C2CC3CC1C[C@](C(N)=O)(C3)C2 | clearance [16]: 4.2 L/h/kg; half-life [17]: 0.3 h; bioavailability [18]: 20%
0.11 µM | > 100 µM | 0.21 µM | 45 µM | 0.67 µM | 100% | CC(C)(Oc1ccc(Cl)cc1)C(=O)N[C@H]1C2CC3CC1C[C@](COCC(=O)O)(C3)C2 | –
– | – | 0.01 µM | – | – | 87% | CC(C)(Oc1ccc(F)cc1Cl)C(=O)N[C@H]1C2CC3CC1C[C@](c1nnn[nH]1)(C3)C2 | –
0.096 µM | 0.58 µM | 0.028 µM | 1.2 µM | 0.744 µM | 94% | CC(C)(Oc1ccccc1Cl)C(=O)N[C@H]1C2CC3CC1C[C@](C(=O)NS(C)(=O)=O)(C3)C2 | –
– | – | 0.011 µM | – | – | 5% | CC(C)(Oc1ccc(Cl)cc1)C(=O)N[C@H]1C2CC3CC1C[C@](C(=O)NCc1cncs1)(C3)C2 | –
0.008 µM | 1.8 µM | 0.008 µM | 0.14 µM | 0.059 µM | 94% | CC(C)(Oc1ccccc1Cl)C(=O)N[C@H]1C2CC3CC1C[C@](C(=O)O)(C3)C2 | inhibition in vivo at 30 mg/kg [7]: 81%; inhibition in vivo at 30 mg/kg [8]: 76%; inhibition in vivo at 30 mg/kg [9]: 35%; inhibition in vivo at 30 mg/kg [10]: 67%; inhibition in vivo at 30 mg/kg [11]: 47%; inhibition in vivo at 30 mg/kg [12]: 6%; clearance [16]: 0.9 L/h/kg; half-life [17]: 3.9 h; bioavailability [18]: 100%
